What was measured:
[1] = test system: mouse cytokines: IL-1β, IL-6, IL-10, MCP-1 and TNF-α; assay: LPS-induced cytokine expression in plasma of C57BL/6 mice (MSD U-plex custom panel); assay type: in vivo, C57BL/6 male mice; settings: 30 mg/kg oral gavage 2 hrs prior to LPS 10 mg/kg i.p.; plasma 2 hrs and 6 hrs after LPS
Procedure: Cytokine storm was induced in C57BL/6 male mice by intraperitoneal (i.p.) injection of LPS (10 mg/kg). Two groups of LPS-treated mice (n=5) received 30 mg/kg 15u dissolved in 30% Propylene Glycol, 70% PEG-400 or vehicle control (5 mice per group), via oral gavage 2 hrs prior to LPS dosing. Blood was collected immediately before LPS dosing, 2 hrs after LPS and 6 hrs after LPS (at which time point the animals were euthanized). Plasma samples (1:100 dilution for 2 hr and 6 hr samples, 1:5 dilution for pre-LPS samples) were used to analyze the cytokines with the MSD U-plex custom panel for the following mouse cytokines: IL-1β, IL-6, IL-10, MCP-1 and TNF-α.

48 human cytokines [2] = assay: LPS-induced human cytokines in plasma of humanized mice (Human Cytokine 48-Plex Discovery Assay), Example 2; assay type: in vivo; settings: plasma 6 hrs after LPS
Source text: (§1) To test the effect of CDK8/19 inhibition on LPS-induced cytokine expression in human immune cells, we carried out a study on humanized mice transplanted with human hematopoietic stem cells; such mice contain human blood cells of myeloid and lymphoid lineages as well as mouse blood cells. We have used CIEA NOG-EXL mice (Taconic model #13395) engrafted with human umbilical cord blood-derived CD34+ hematopoietic stem cells 21 weeks before the study. All the mice were female, 25-27 weeks old, and had >45% hCD45+ cells in blood. Eight mice were treated with 1 mg/kg LPS i.p.; this dose was selected based on the finding of (38) that 12.5 μg (˜0.5 mg/kg) produced stronger cytokine induction than 50 μg (˜2 mg/kg) in humanized mice. The first group of LPS-treated mice (n=3) (G1) received vehicle alone by oral gavage 1 hr before LPS, the second group (n=3) received 15u at 30 mg/kg by oral gavage 1 hr before LPS, and the third group (n=2) (G3) received 15u at 30 mg/kg by oral gavage 0.5 hrs after LPS. Blood samples were collected from each mouse one week before LPS dosing. Mice were euthanized 6 hrs after LPS dosing and terminal blood samples were collected for cytokine analysis; in addition, spleens were collected for RNA analysis.
The effects of LPS and 15u on the expression of 48 human cytokines were measured using Human Cytokine 48-Plex Discovery Assay (Eve Technologies) using plasma samples at 1:100 dilution. […] The results of this analysis are shown in FIG. 2 for 33 of 48 cytokines that were induced by LPS>2-fold (cytokine plots are shown in the order of fold induction by LPS). […] These included 14 mediators of cytokine storm listed in Table 1: GM-CSF, IFN-γ, IL-1 (α and β), IL-6, IL-8, IL-12 (p40 and p70), IL-18, MIG/CXCL9, MIP-1 (α and β) and TNF (α and β).

32 mouse cytokines = assay: LPS-induced mouse cytokines in plasma of humanized mice (Mouse Cytokine 32-Plex Discovery Assay), Example 2; assay type: in vivo, humanized CIEA NOG-EXL mice; settings: 30 mg/kg p.o. 1 hr before LPS; plasma 6 hrs after LPS
Source text: as §1
We have also used the same plasma samples (at 1:100 dilution) to measure the expression of 32 mouse cytokines using Mouse Cytokine 32-Plex Discovery Assay (Eve Technologies).

[3] = test system: human cytokines associated with cytokine storm (Table 1); assay: RNA-Seq of spleens of LPS-treated humanized mice, human cytokines associated with cytokine storm; assay type: in vivo, humanized CIEA NOG-EXL mice (human transcripts); settings: 6 hrs after LPS
Source text: as §1
(§2) RNA from spleens of mice of G1-3, euthanized 6 hrs after LPS dosing, was analyzed by RNA-Seq. […]

[4] = test system: mouse cytokines associated with cytokine storm (Table 1); assay: RNA-Seq of spleens of LPS-treated humanized mice, mouse cytokines associated with cytokine storm; assay type: in vivo, humanized CIEA NOG-EXL mice (mouse transcripts); settings: 6 hrs after LPS
Source text: as §1, §2

48 human cytokines [5] = assay: LPS-induced human cytokines in plasma of humanized mice (Human Cytokine 48-Plex Discovery Assay), Example 3; assay type: in vivo; settings: for induction of human proinflammatory cytokines by LPS: 15u 30 mg/kg p.o. or BI-1347 10 mg/kg p.o., LPS 1 mg/kg i.p., plasma 6 hrs after LPS
Procedure: Mice were randomized into 6 groups (n=4-5), Group 1 being untreated control, Group 2 receiving 15u (a.k.a. SNX) (30 mg/kg p.o., administered as in example 2), Group 3 receiving LPS (1 mg/kg i.p.), Group 4 receiving LPS plus 15u administered 1 hr before LPS, Group 5 receiving LPS plus 15u administered 0.5 hr after LPS, and Group 6 receiving LPS plus CDK8/19 inhibitor BI-1347 (28) (10 mg/kg dissolved in 30% Propylene Glycol/70% PEG-400, p.o.) administered 1 hr before LPS. Mice were euthanized 6 hrs after LPS dosing and terminal blood samples were collected for cytokine analysis. As in Example 2, the effects of LPS and 15u on the expression of 48 human cytokines were measured using Human Cytokine 48-Plex Discovery Assay (Eve Technologies) using plasma samples at 1:100 dilution. The results of this analysis are shown in FIG. 5 for those cytokines that were induced by LPS. To assure more accurate assessment of effects of CDK8/19 inhibition on LPS-induced cytokines, 4 LPS-treated animals with low serum level (below 100 pg/mL) of IL-10, the cytokine whose LPS-mediated induction is not decreased by CDK8/19 inhibition, were excluded from the analysis (the low levels of cytokines in such animals are possibly due to insufficient administration of LPS). In this study, fewer cytokines (19 of 48) were induced by LPS than in Example 2, with many cytokines showing apparently higher expression levels in untreated mice possibly reflecting an inflammatory process that could have developed in humanized mice at the late time point (25-26 weeks) after the transplantation of CD34+ hematopoietic stem cells. Nevertheless, as in example 2, the induction of most of the LPS-induced cytokines was decreased by CDK8/19 inhibitor treatment (FIG. 5), including G-CSF, IFN-γ, IL-1 (α and β), IL-6, IL-8, MIG/CXCL9, MCP-1, MIP-1β and TNF (α and β) and IP-10. Among LPS-induced cytokines, only anti-inflammatory IL-10 was induced to a greater degree with than without CDK8/19 inhibitor treatment, an indication of anti-inflammatory activity. […]

panel of 468 kinases = settings: at 2000 nM, cited from earlier work

Compound | effect on LPS-induced expression of the assayed cytokines (IL-1β, IL-6, IL-10, MCP-1, TNF-α) [1] | number of the most strongly LPS-induced human cytokines whose induction was suppressed (48 human cytokines [2]; 30 mg/kg oral gavage 1 hr before LPS 1 mg/kg i.p.) | LPS-induced human IP-10 (48 human cytokines [2]; 30 mg/kg p.o. 1 hr before LPS) | LPS-induced human MCP-1 (48 human cytokines [2]; 30 mg/kg p.o. 1 hr before LPS) | LPS-induced human anti-inflammatory IL-10 (48 human cytokines [2]; 30 mg/kg p.o. 1 hr before LPS) | over-induction of human IL-10 (48 human cytokines [2]; 30 mg/kg p.o. 1 hr before LPS) | induction of 14 mediators of cytokine storm: GM-CSF, IFN-γ, IL-1 (α and β), IL-6, IL-8, IL-12 (p40 and p70), IL-18, MIG/CXCL9, MIP-1 (α and β), TNF (α and β) (48 human cytokines [2]; human cytokines, 30 mg/kg p.o. 1 hr before LPS) | LPS-induced mouse IL-7 (32 mouse cytokines) | LPS-induced mouse IL-10 (32 mouse cytokines) | effect on LPS-induced mouse cytokines (27 of 32 induced) (32 mouse cytokines) | number of human cytokines with decreased RNA amounts in spleen ([3]; 15u 30 mg/kg p.o. administered after LPS (G3) vs LPS alone (G1)) | number of human cytokines with decreased RNA amounts in spleen ([3]; 15u 30 mg/kg p.o. administered before LPS (G2) vs LPS alone (G1)) | number of mouse cytokines with decreased RNA in spleen ([4]; 15u-treated G2 or G3 relative to G1) | number of mouse cytokines (including TNF and IL-10) with elevated RNA in spleen ([4]; G2 and especially G3 relative to G1) | suppression of proinflammatory cytokine induction, 15u administered 0.5 hours after LPS compared with 1 hour before LPS (48 human cytokines [5]; 30 mg/kg p.o., in most cases) | induction of human proinflammatory cytokines by LPS (48 human cytokines [5]) | S(35) S-score (panel of 468 kinases; S(#)=(number of non-mutant kinases with % Ctrl<#)/(number tested)) | S(10) S-score (panel of 468 kinases)
CN(C)C(=O)c1ccc(N2CCCN(c3ccnc4sc(C(N)=O)c(N)c34)CC2)cc1 [15u, 3-amino-4-(4-(4 (dimethylcarbamoyl)phenyl)-1,4-diazepan-1-yl)thieno[2,3-b]pyridine-2-carboxamide] | no significant effect | 24 of 27 | not inhibited | not inhibited | only borderline inhibition | not over-induced | suppressed | weakly inhibited | over-induced | most of them were unaffected | 15 of 26 | 18 of 26 | 3 of 27 | 7 | stronger | suppressed | less than 0.02 | < 0.004
CN(C)C(=O)Cn1cc(-c2ccc(-c3cncc4ccccc34)cc2)cn1 [BI-1347, 2-(4-(4-(isoquinolin-4-yl)phenyl)-1H-pyrazol-1-yl)-N,N-dimethylacetamide, reference compound] |  |  |  |  |  |  |  |  |  |  |  |  |  |  |  | broadly suppressed |  | 
